# Results: patent US9718835B2 (China Medical University Hospital, priority 2013, dated 2017)
# What was measured:
# [1] = tested on: KB (epidermoid carcinoma of the nasopharynx); test: Sulforhodamine B cytotoxicity assay, KB; type: cell-based, human; details: Table 1; 72 h; average ± SD; read-out: IC50 KB
# Procedure: The 12 novel 1-derivatives 9a-l were evaluated for in vitro antiproliferative activity against four human tumor cell lines, KB (nasopharyngeal), A-549 (lung), DU-145 (prostate), and KBvin (MDR KB subline), by using a sulforhodamine B colorimetric assay with triplicate experiments.^30 Compounds 1 and 3 were used as controls.
# (§1) The human tumor cell lines used in this manuscript were A-549 (lung carcinoma), MDA-MB-231 (triple-negative breast cancer), DU-145 (hormone-insensitive prostate cancer), KB (originally isolated from epidermoid carcinoma of the nasopharynx), KBvin (vincristine-resistant KB subline), and HCT116 (colorectal adenocarcinoma). These cell lines were obtained from the Lineberger Comprehensive Cancer Center (UNC-CH) or from ATCC (Manassas, Va.), except KBvin, which was a generous gift of Professor Y.-C. Cheng (Yale University). All cell lines were maintained and assayed in RPMI-1640 medium containing 2 mM L-glutamine and 25 mM HEPES (HyClone), supplemented with 10% heat-inactivated fetal bovine serum (HyClone), 100 μg/mL streptomycin, 100 IU/mL penicillin, and 0.25 μg/mL amphotericin B (Cellgro) in a humidified atmosphere containing 5% CO2 in air. Compound stock solutions were prepared at 10 mM in DMSO and diluted with culture medium with the final DMSO concentration ≦0.01% (v/v), a concentration without effect on cell growth. The 4-6×10^3 cells/well were cultured for 72 h with various concentrations of test compounds in 96-well plate at 37° C. […] Each assay was performed in triplicate with duplicated samples.
# [2] = tested on: KBvin (vincristine-resistant KB subline); test: Sulforhodamine B cytotoxicity assay, KBvin; type: cell-based, human; details: Table 1; 72 h; average ± SD; read-out: IC50 KBvin
# Description: as §1, with “Compound stock solutions were prepared at 10 mM in DMSO and diluted with culture medium with the final DMSO concentration ≦0.01% (v/v), a concentration without effect on cell growth.” left out
# [3] = tested on: SKOV3 (Ovary cancer); test: cells; type: cell-based, human; details: Table 6; read-out: In vitro cytotoxicity SKOV3 (Ovary cancer)
# [4] = target: T1, recombinant human Topoisomerase I (Homo sapiens, UniProt P11387); test: Topoisomerase I activity assay in a cell-free system; type: biochemical; details: purified recombinant human Topo I
# T1 construct: purchased TopoGEN
# T1 sequence (P11387 1-765): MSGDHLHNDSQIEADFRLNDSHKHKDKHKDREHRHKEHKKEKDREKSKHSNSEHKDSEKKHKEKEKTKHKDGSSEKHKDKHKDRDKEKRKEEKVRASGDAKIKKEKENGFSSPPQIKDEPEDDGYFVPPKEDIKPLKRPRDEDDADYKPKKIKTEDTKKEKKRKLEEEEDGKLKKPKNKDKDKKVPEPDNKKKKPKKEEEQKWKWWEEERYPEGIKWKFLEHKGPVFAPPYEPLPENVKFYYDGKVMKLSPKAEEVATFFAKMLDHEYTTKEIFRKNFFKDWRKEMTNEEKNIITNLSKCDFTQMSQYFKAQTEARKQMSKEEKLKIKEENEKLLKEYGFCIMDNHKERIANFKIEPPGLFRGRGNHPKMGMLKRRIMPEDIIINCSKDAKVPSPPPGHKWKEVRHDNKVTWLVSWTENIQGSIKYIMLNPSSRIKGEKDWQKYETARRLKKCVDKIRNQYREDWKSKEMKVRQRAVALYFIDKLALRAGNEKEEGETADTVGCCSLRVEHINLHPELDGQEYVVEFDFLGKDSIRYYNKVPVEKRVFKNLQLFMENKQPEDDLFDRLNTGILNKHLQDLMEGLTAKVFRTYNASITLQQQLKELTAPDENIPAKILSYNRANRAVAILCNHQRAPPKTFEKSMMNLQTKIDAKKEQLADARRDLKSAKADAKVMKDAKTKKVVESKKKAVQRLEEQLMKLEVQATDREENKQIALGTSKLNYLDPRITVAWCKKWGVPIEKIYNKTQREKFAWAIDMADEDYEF
# Procedure: Inhibition of Topo I activity by 9a in a cell-free system. A 1-delivative with an esterified 20-hydroxy group is expected to be activated by digestion with carboxylesterases. […] We authenticated the inhibitory effect of 9a against Topo I in a dose-dependent manner Thus, we confirmed that 9a is a new class of Topo I inhibitor.
# One unit of recombinant human Topoisomerase I enzyme (TopoGEN) was pre-incubated for 20 min at 37° C. with vehicle, 9a, 1, 3, or SN-38 in a final volume of 20 μL reaction buffer (10 mM Tris-HCl, pH 7.9, 1 mM EDTA, 150 mM NaCl, 0.1% BSA, 0.1 mM spermidine, 5% glycerol) was then incubated with 250 ng of supercoiled plasmid DNA for 20 min. The supercoiled, relaxed, or nicked DNA was separated by 1% agarose gel in 1×TAE (Tris-Acetate-EDTA) buffer. Ethidium bromide stained agarose gel was photographed using Gel Doc XR (Bio-Rad).
# [5] = tested on: ATM; test: Western blot analysis of ATM phosphorylation (DNA damage response); type: cell-based, human; details: after 0.5 h treatment
# Procedure: Activation of ATM kinase was confirmed by detecting the phosphorylation of downstream effectors, Chk1, Chk2, and histone H2AX.
# Cells were harvested in PBS containing proteinase inhibitors and phosphatase inhibitors, and sonicated. Whole cell lysates were separated by SDS-PAGE and transferred to Immobilon P membrane (EMD Millipore). The membrane was incubated with primary antibody followed by labeling with horseradish peroxidase (HRP)-conjugated secondary antibody (EMD Millipore). Chemilluminence substrate kit (EMD Millipore) was used for detection of membrane-bound HRP, and visualized by the Luminsence image analyzer, LAS4000 (Fuji Photo Film Co., Japan).
# Antibodies to caspase-3, caspase-8, caspase-9, PARP, phospho-ATM (Ser1981), ATM, phospho-ATR (Ser428), phospho-Chk1 (Ser345), phospho-Chk2 (Thr68), Chk2, phospho-H2AX (Ser139), and phospho-p53 (Ser15) were purchased from Cell Signaling Technology. Antibodies against ATM, ATR, Chk1, and PUMA were from Santa Cruz Biotechnology. Antibodies against Topo I, Topo IIα, Topo IIβ, p53, FADD, BAX, Bcl-xL, and Bcl-2 were from BD Biosciences. Antibody to β-actin was purchased from EMD Millipore.
smiles,measurement,setting,value
CC[C@@]1(OC(=O)CNC(Cc2ccc(OC)cc2)=NS(=O)(=O)c2ccc(C)cc2)C(=O)OCc2c1cc1n(c2=O)Cc2cc3ccccc3nc2-1 [Compound 9a],IC50,[1],140 ± 18 nM
same,IC50,[2],26 nM
same,IC50,[3],17.1 ± 2.27 nM
same,Inhibition of Topo I activity (relaxation/nicking of supercoiled plasmid DNA),[4],inhibited Topo I activity
same,ATM phosphorylation at Ser1981,[5],underwent phosphorylation at Ser1981 residue
